Data taken from USRE50528E1, “Compounds and compositions for modulating EGFR mutant kinase activities” (Yuhan Corporation, priority 2014, dated 2025).

What was measured:
[1] = molecular target: T1, EGFR mutant Del19 (E746-A750) (Homo sapiens, UniProt P00533, DEL746-750); assay: Kinase inhibition assay, EGFR del E746-A750; assay type: biochemical; details: read-out: EGFR mutants Del19 (E746-A750);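 further: truncated human EGFR mutant kinase, two-hour preincubation with compound, then one-hour reaction with ATP and ULight-PolyGT peptide, LANCE Europium-antibody phosphorylation readout, IC50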
T1 construct: truncated human JAK3, EGFR mutants such as del E746-A750; purchased Carna Biosciences

[2] = system: H1975 (EGFR L858R/T790M mutant); assay: Cell viability assay, H1975; assay type: cell-based; details: for IC50: Homo sapiens, NCI-H1975, cellular potency, 72-hour incubation, ATPLite, read-out: EGFR Mutants H1975; for Selectivity over wildtype, Wildtype vs mutant H2073/H1975 (fold): cellular potency ratio;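 on all read-outs here: NSCLC cells whose survival relies on EGFR L858R/T790M, exposed 72 h to serially diluted compound, ATP-based viability readout, with the H2073 line (wildtype EGFR dependent) as wildtype comparator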
[3] = system: PC9 (EGFR del E746-A750 mutant); assay: Cell viability assay, PC9; assay type: cell-based; details: for Selectivity over wildtype, Wildtype vs mutant H2073/PC9 (fold): cellular potency ratio; for IC50: cellular potency, 72-hour incubation, ATPLite, read-out: EGFR Mutants PC9;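 on all read-outs here: NSCLC PC9 cells, whose viability relies on EGFR del E746-A750, exposed to serially diluted compound for 72 h at 37 °C, ATPLite read-out, IC50, H2073 as EGFR wildtype line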
KDR = molecular target: T2, KDR (Homo sapiens, UniProt P35968); assay: Kinase inhibition assay, KDR; assay type: biochemical; details: biochemical potency;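 further: purified full-length human KDR, 30 min preincubation with compound, then 1 h reaction with ATP and Ulight-Jak1 peptide substrate, phosphorylation read by Lance Europium antibody detection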
T2 construct: Purified human, full-length SYK, KDR; purchased Carna Biosciences

SYK = molecular target: T3, SYK (Homo sapiens, UniProt P43405); assay: Kinase inhibition assay, SYK; assay type: biochemical; details: biochemical potency;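 further: purified full-length human SYK pre-incubated 30 min with compound, then ULight-TK peptide phosphorylation for 1 h, detected with Europium-labeled antibody in Lance buffer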
T3 construct: Purified human, full-length SYK, KDR; purchased Carna Biosciences

H2073 (EGFR wildtype) = assay: Cell viability assay, H2073; assay type: cell-based; details: NCI-H2073; cellular potency; 72-hour incubation; ATPLite;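 further: NSCLC cell line whose survival relies on wildtype EGFR, treated with serially diluted compound, cytotoxic effect judged from remaining cell viability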
EGFR mutant Del19/T790M = molecular target: T4, EGFR mutant Del19/T790M (Homo sapiens, UniProt P00533, DEL746-750/T790M); assay: Kinase inhibition assay, EGFR del E746-A750/T790M; assay type: biochemical; details: read-out: EGFR mutants Del19/T790M
T4 construct: truncated human JAK3, EGFR mutants such as del E746-A750; purchased Carna Biosciences

EGFR mutant T790M = molecular target: T5, EGFR mutant T790M (Homo sapiens, UniProt P00533, T790M); assay: Kinase inhibition assay, EGFR mutant T790M; details: biochemical potency;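 further: truncated human EGFR mutant enzyme preincubated two hours with compound, then ATP plus ULight-PolyGT peptide for one hour, Europium-labeled antibody LANCE detection, IC50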
T5 construct: truncated human JAK3, EGFR mutants such as del E746-A750; purchased Carna Biosciences

EGFR mutant L858R/T790M = molecular target: T6, EGFR mutant L858R/T790M (Homo sapiens, UniProt P00533, L858R/T790M); assay: Kinase inhibition assay, EGFR L858R/T790M; assay type: biochemical; details: read-out: EGFR mutants L858R/T790M;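 further: truncated human enzyme preincubated two hours with compound, then one hour with one millimolar ATP and ULight-PolyGT peptide, Europium-labeled antibody detection, IC50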
T6 construct: truncated human JAK3, EGFR mutants such as del E746-A750; purchased Carna Biosciences

EGFR mutant L858R = molecular target: T7, EGFR mutant L858R (Homo sapiens, UniProt P00533, L858R); assay: Kinase inhibition assay, EGFR L858R; assay type: biochemical; details: read-out: EGFR mutants L858R;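 further: truncated human EGFR L858R kinase with compound preincubation, ULight-PolyGT peptide phosphorylation read by Europium-antibody Lance detection, IC50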
T7 construct: truncated human JAK3, EGFR mutants such as del E746-A750; purchased Carna Biosciences

JAK3 = molecular target: T8, JAK3 (Homo sapiens, UniProt P52333); assay: Kinase inhibition assay, JAK3; details: biochemical potency;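 further: IC50 against purified truncated human JAK3 preincubated with compound, then reacted with ATP and ULight-Jak1 peptide, phosphorylation read by Europium-labeled antibody LANCE detection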
T8 construct: EGFR and JAK3 (JH1domain-catalytic) kinases, and mutant forms thereof; purchased Carna Biosciences
T8 sequence (P52333 822-1111 limits assumed): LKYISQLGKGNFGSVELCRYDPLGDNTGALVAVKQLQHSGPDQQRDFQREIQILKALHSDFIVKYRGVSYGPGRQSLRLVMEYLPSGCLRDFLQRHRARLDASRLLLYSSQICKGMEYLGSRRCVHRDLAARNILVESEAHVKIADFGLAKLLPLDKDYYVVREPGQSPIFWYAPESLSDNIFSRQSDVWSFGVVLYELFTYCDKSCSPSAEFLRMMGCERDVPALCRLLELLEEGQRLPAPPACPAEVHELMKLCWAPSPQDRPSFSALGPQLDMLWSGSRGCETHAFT

T2 sequence (P35968 20-1356): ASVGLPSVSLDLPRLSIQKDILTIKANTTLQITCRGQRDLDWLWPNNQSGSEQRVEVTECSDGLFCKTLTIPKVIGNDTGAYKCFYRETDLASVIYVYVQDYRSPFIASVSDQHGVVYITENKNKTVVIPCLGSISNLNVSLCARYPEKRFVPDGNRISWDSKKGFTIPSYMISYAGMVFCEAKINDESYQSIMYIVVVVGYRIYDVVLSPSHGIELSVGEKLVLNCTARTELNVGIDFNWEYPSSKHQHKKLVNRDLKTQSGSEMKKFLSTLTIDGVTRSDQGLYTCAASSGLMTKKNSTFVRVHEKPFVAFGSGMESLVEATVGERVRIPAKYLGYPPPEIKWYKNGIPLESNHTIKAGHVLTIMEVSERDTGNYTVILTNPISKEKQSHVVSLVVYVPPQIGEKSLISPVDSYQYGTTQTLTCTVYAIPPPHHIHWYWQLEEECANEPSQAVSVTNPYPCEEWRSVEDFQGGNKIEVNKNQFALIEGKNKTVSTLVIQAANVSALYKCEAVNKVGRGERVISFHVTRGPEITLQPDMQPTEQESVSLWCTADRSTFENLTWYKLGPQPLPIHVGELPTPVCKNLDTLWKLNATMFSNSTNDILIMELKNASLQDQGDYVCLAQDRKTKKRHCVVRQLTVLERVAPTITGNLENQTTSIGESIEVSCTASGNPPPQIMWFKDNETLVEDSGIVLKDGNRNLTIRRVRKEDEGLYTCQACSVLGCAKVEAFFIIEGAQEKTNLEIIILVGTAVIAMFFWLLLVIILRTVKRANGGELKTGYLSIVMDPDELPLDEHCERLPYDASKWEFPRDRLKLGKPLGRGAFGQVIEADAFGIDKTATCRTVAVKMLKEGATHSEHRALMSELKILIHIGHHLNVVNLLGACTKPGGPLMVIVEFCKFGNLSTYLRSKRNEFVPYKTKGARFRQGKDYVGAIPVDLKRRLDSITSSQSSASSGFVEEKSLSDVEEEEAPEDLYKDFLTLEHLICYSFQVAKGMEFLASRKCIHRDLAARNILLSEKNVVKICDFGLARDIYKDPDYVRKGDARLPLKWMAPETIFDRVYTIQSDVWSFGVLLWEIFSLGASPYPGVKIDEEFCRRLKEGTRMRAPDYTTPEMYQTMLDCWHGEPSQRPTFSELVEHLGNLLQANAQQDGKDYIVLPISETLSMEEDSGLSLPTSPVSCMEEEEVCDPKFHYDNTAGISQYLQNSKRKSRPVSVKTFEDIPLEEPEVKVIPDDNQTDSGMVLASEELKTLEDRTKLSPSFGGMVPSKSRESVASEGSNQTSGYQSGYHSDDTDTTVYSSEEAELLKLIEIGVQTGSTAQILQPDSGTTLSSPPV
T4 sequence (P00533 with tags, fused parts or gaps DEL746-750/T790M limits assumed): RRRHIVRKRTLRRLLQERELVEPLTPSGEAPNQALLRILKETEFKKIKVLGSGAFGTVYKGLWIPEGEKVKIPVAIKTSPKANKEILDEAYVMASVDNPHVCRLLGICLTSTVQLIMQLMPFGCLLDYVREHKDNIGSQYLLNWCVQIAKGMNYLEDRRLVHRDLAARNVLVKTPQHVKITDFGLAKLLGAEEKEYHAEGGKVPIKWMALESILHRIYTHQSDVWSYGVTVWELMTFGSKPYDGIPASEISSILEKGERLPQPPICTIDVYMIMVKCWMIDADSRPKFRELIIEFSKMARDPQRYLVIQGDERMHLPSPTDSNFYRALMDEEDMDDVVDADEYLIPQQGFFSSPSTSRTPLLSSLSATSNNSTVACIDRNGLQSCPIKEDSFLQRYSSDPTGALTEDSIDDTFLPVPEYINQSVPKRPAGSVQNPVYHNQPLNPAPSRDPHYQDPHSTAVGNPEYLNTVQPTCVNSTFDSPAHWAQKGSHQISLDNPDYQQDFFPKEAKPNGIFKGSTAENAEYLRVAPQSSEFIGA
T1 sequence (P00533 with tags, fused parts or gaps DEL746-750 limits assumed): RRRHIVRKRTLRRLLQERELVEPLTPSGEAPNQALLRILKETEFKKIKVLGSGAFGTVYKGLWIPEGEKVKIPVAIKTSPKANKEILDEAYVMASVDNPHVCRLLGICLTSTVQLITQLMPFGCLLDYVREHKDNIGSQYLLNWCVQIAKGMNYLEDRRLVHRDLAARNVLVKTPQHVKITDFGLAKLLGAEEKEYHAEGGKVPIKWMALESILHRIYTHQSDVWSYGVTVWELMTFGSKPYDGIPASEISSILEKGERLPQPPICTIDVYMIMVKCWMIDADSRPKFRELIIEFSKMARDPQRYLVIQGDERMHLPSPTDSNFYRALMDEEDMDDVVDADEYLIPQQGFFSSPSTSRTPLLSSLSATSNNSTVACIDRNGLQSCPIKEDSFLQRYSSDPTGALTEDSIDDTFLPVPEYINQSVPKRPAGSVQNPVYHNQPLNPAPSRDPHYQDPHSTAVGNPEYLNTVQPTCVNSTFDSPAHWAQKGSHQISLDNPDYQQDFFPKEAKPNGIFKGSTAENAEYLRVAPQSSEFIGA
T7 sequence (P00533 669-1210 L858R limits assumed): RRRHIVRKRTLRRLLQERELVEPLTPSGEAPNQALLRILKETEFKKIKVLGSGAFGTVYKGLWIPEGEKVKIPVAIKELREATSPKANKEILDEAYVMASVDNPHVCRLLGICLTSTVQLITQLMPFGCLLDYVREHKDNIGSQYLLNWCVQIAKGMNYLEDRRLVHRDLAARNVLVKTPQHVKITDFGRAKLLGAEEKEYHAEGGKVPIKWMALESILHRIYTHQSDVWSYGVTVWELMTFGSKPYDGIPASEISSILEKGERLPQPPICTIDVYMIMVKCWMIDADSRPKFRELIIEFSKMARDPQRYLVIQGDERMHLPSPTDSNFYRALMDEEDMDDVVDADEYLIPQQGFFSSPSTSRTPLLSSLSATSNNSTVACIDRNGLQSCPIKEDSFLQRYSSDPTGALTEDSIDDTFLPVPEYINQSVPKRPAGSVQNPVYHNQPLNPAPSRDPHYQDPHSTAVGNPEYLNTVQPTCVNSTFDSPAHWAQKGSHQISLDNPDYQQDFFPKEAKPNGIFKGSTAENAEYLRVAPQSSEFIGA
T6 sequence (P00533 669-1210 T790M/L858R limits assumed): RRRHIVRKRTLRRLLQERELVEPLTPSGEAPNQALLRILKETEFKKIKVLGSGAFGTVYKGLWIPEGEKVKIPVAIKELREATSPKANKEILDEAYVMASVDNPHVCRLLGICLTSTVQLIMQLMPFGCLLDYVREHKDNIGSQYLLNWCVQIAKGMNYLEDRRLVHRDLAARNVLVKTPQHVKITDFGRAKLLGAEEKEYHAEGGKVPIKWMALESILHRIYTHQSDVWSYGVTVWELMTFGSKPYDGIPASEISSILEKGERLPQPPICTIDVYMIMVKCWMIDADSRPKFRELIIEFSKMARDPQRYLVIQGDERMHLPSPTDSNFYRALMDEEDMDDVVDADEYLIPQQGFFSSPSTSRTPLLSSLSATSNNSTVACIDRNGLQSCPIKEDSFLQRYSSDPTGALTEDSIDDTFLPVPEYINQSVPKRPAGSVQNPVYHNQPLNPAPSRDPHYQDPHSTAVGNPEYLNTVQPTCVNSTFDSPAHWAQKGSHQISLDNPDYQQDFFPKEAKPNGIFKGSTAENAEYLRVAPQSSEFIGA
T5 sequence (P00533 669-1210 T790M limits assumed): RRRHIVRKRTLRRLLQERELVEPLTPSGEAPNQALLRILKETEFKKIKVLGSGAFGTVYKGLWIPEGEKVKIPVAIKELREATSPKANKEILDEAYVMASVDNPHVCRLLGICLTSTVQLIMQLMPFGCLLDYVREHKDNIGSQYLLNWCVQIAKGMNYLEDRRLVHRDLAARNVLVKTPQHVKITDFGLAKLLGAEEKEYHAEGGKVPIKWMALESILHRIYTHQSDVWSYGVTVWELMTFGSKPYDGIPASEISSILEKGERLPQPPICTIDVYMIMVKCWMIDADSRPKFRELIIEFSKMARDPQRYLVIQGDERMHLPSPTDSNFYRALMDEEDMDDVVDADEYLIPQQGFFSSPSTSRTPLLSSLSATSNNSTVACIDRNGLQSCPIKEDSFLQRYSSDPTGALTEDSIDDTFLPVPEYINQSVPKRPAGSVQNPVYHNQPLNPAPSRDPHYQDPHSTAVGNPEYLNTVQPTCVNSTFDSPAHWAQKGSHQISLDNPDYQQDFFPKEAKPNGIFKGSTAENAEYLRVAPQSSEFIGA

SMILES | IC50 [1] | IC50 [2] | IC50 [3] | IC50 (KDR) | IC50 (SYK) | IC50 (H2073 (EGFR wildtype)) | IC50 (EGFR mutant Del19/T790M) | IC50 (EGFR mutant T790M) | IC50 (EGFR mutant L858R/T790M) | IC50 (EGFR mutant L858R) | IC50 (JAK3) | Selectivity over wildtype, Wildtype vs mutant H2073/H1975 (fold) [2] | Selectivity over wildtype, Wildtype vs mutant H2073/PC9 (fold) [3]
C=CC(=O)Nc1cc(Nc2ncc(C)c(-n3cc(CN4CCC4)cn3)n2)c(OC)cc1N1CCOCC1 [Compound 32, N-(5-(4-(4-(azetidin-1-ylmethyl)-1H-pyrazol-1-yl)-5-methylpyrimidin-2-ylamino)-4-methoxy-2-morpholinophenyl)acrylamide] | < 20 nM | 20 to 200 nM | 201 to 1000 nM | > 1000 nM | 201 to 1000 nM | > 1000 nM | < 20 nM | < 20 nM | < 20 nM | < 20 nM | < 20 nM | 20-100 fold | 20-100 fold
C=CC(=O)Nc1cc(Nc2ncc(C)c(-n3cc(CN4CCC4)cn3)n2)c(OC)cc1N(C)CCN(C)C [Compound 42, N-(5-(4-(4-(azetidin-1-ylmethyl)-1H-pyrazol-1-yl)-5-methylpyrimidin-2-ylamino)-2-((2-(dimethylamino)ethyl)(methyl)amino)-4-methoxyphenyl)acrylamide] | < 20 nM | 20 to 200 nM | 201 to 1000 nM | > 1000 nM | > 1000 nM | > 1000 nM | < 20 nM | < 20 nM | < 20 nM | 20 to 200 nM | < 20 nM | >200 fold | 20-100 fold
C=CC(=O)Nc1cc(Nc2ncc(C)c(-n3cc(C)c(CN4CC(O)C4)c3)n2)c(OC)cc1N1CCOCC1 [Compound 48, N-(5-(4-(3-((3-hydroxyazetidin-1-yl)methyl)-4-methyl-1H-pyrrol-1-yl)-5-methylpyrimidin-2-ylamino)-4-methoxy-2-morpholinophenyl)acrylamide] | < 20 nM | 201 to 1000 nM | 201 to 1000 nM | > 1000 nM | 201 to 1000 nM | > 1000 nM | < 20 nM | < 20 nM | < 20 nM | 20 to 200 nM | < 20 nM | <20 fold | <20 fold
C=CC(=O)Nc1cc(Nc2ncc(Cl)c(-n3cc(CN4CCC4)c(C)n3)n2)c(OC)cc1N1CCOCC1 [Compound 50, N-(5-(4-(4-(azetidin-1-ylmethyl)-3-methyl-1H-pyrazol-1-yl)-5-chloropyrimidin-2-ylamino)-4-methoxy-2-morpholinophenyl)acrylamide] | < 20 nM | 20 to 200 nM | 20 to 200 nM | > 1000 nM | > 1000 nM | > 1000 nM | < 20 nM | < 20 nM | < 20 nM | 20 to 200 nM | < 20 nM | >200 fold | 101-200 fold
C=CC(=O)Nc1cc(Nc2ncc(Cl)c(-n3cc(CN4C[C@@H](O)[C@@H](O)C4)c(C)n3)n2)c(OC)cc1N1CCN(C)CC1 [Compound 54, N-(5-(5-chloro-4-(4-(((3R,4S)-3,4-dihydroxypyrrolidin-1-yl)methyl)-3-methyl-1H-pyrazol-1-yl)pyrimidin-2-ylamino)-4-methoxy-2-(4-methylpiperazin-1-yl)phenyl)acrylamide] | < 20 nM | 201 to 1000 nM | 20 to 200 nM | > 1000 nM | > 1000 nM | > 1000 nM | < 20 nM | < 20 nM | < 20 nM | 20 to 200 nM | < 20 nM | <20 fold | 20-100 fold
C=CC(=O)Nc1cc(Nc2ncc(F)c(-n3cc(CN4CCC4)c(C)n3)n2)c(OC)cc1N1CCOCC1 [Compound 62, N-(5-(4-(4-(azetidin-1-ylmethyl)-3-methyl-1H-pyrazol-1-yl)-5-fluoropyrimidin-2-ylamino)-4-methoxy-2-morpholinophenyl)acrylamide] | < 20 nM | 20 to 200 nM | 20 to 200 nM | > 1000 nM | > 1000 nM | > 1000 nM | < 20 nM | < 20 nM | < 20 nM | < 20 nM | < 20 nM | >200 fold | >200 fold
C=CC(=O)Nc1cc(Nc2ncc(C)c(-n3cc(CN(C)C)c(C)n3)n2)c(OC)cc1N1CCOCC1 [Compound 75, N-(5-(4-(4-((dimethylamino)methyl)-3-methyl-1H-pyrazol-1-yl)-5-methylpyrimidin-2-ylamino)-4-methoxy-2-morpholinophenyl)acrylamide] | < 20 nM | 20 to 200 nM | 20 to 200 nM | > 1000 nM | 20 to 200 nM | > 1000 nM | < 20 nM | < 20 nM | < 20 nM | < 20 nM | < 20 nM | 101-200 fold | 101-200 fold
C=CC(=O)Nc1cc(Nc2ncc(C)c(-n3cc(CN4CCC4)c(C)n3)n2)c(OC)cc1N1CCOCC1 [Compound 76, N-(5-(4-(4-(azetidin-1-ylmethyl)-3-methyl-1H-pyrazol-1-yl)-5-methylpyrimidin-2-ylamino)-4-methoxy-2-morpholinophenyl)acrylamide] | < 20 nM | 20 to 200 nM | 20 to 200 nM | > 1000 nM | 201 to 1000 nM | > 1000 nM | < 20 nM | < 20 nM | < 20 nM | < 20 nM | < 20 nM | 101-200 fold | 101-200 fold

Further lines, with some results ahead:

IC50 [1] | IC50 [2] | IC50 [3] | IC50 (KDR) | IC50 (SYK) | IC50 (H2073 (EGFR wildtype)) | IC50 (EGFR mutant Del19/T790M) | IC50 (EGFR mutant T790M) | IC50 (EGFR mutant L858R/T790M) | IC50 (EGFR mutant L858R) | IC50 (JAK3) | SMILES | Selectivity over wildtype, Wildtype vs mutant H2073/H1975 (fold) [2] | Selectivity over wildtype, Wildtype vs mutant H2073/PC9 (fold) [3]
< 20 nM | 20 to 200 nM | 20 to 200 nM | > 1000 nM | 20 to 200 nM | > 1000 nM | < 20 nM | < 20 nM | < 20 nM | < 20 nM | < 20 nM | C=CC(=O)Nc1cc(Nc2ncc(C)c(-n3cc(CN4CC(O)C4)c(C)n3)n2)c(OC)cc1N1CCN(C)CC1 [Compound 29, N-(5-(4-(4-((3-hydroxyazetidin-1-yl)methyl)-3-methyl-1H-pyrazol-1-yl)-5-methylpyrimidin-2-ylamino)-4-methoxy-2-(4-methylpiperazin-1-yl)phenyl)acrylamide] | <20 fold | <20 fold
< 20 nM | 20 to 200 nM | 20 to 200 nM | > 1000 nM | > 1000 nM | > 1000 nM | < 20 nM | < 20 nM | < 20 nM | < 20 nM | < 20 nM | C=CC(=O)Nc1cc(Nc2ncc(C)c(-n3cc(CN4CCC4)cn3)n2)c(OC)cc1N1CCN(C)CC1 [Compound 36, N-(5-(4-(4-(azetidin-1-ylmethyl)-1H-pyrazol-1-yl)-5-methylpyrimidin-2-ylamino)-4-methoxy-2-(4-methylpiperazin-1-yl)phenyl)acrylamide] | 20-100 fold | 20-100 fold
< 20 nM | 20 to 200 nM | < 20 nM | > 1000 nM | > 1000 nM | > 1000 nM | < 20 nM | < 20 nM | < 20 nM | < 20 nM | < 20 nM | C=CC(=O)Nc1cc(Nc2nccc(-n3cc(CN4CCC4)c(C4CC4)n3)n2)c(OC)cc1N1CCOCC1 [Compound 55, N-(5-(4-(4-(azetidin-1-ylmethyl)-3-cyclopropyl-1H-pyrazol-1-yl)pyrimidin-2-ylamino)-4-methoxy-2-morpholinophenyl)acrylamide] | 101-200 fold | >200 fold
< 20 nM | < 20 nM | < 20 nM | > 1000 nM | 201 to 1000 nM | > 1000 nM | < 20 nM | < 20 nM | < 20 nM | < 20 nM | < 20 nM | C=CC(=O)Nc1cc(Nc2nccc(-n3cc(CN(C)C)c(C)n3)n2)c(OC)cc1N(C)C [Compound 71, N-(2-(dimethylamino)-5-(4-(4-((dimethylamino)methyl)-3-methyl-1H-pyrazol-1-yl)pyrimidin-2-ylamino)-4-methoxyphenyl)acrylamide] | >200 fold | >200 fold
